Source: patent US8323917B2, “Method of screening for compounds that inhibit the enzymatic activity of GWT1 gene product” (priority 2002, dated 2012)

Columns and labels:
[1] = target: T1, GWT1 gene product (Gwt1 protein) in membrane fraction (Saccharomyces cerevisiae, UniProt P47026); assay: acylated GPI detection system (GPI acylation assay, TLC of GlcN-(acyl)PI); assay type: biochemical, S. cerevisiae; details: UDP-[14C]GlcNAc, TLC/autoradiography, FIGS. 3 and 4
T1 construct: made in house; host or cells: S. cerevisiae Δgwt1 strain carrying the YEp352GAPIIClaIΔSal-GWT1 overexpression plasmid; total membrane fraction
Description: Wild-type S. cerevisiae strain, the GWT1 gene-deficient strain Δgwt1, and the strain Δgwt1 into which the GWT1 overexpression plasmid was introduced were each cultured in 100 ml of YPD medium shaken at 24° C., and then harvested in the middle logarithmic growth phase (0D600=1˜3). The fungal cells were washed with TM buffer (50 mM Tris-HCl (pH 7.5) and 2 mM MgCl2), and then suspended in 2 ml of TM buffer+protease inhibitor (1 tablet of Complete™, protease inhibitor, (Roche)/25 ml). 1.5 ml of glass beads was added to the suspension. The mixture was vortexed for 30 seconds, and then placed on ice for 30 seconds. These procedures were repeated ten times to disrupt the fungal cells. The cell homogenate was transferred into a new tube, and centrifuged at 1000 g at 4° C. for five minutes to precipitate the glass beads and undisrupted fungal cells. The supernatant was transferred to another tube, and centrifuged at 13 000g at 4° C. for 20 minutes to precipitate the membrane fraction comprising organelles (total membrane fraction). The resulting precipitate was used as the membrane fraction.
The membrane fraction preparation (300 μg protein) was diluted with a buffer consisting of 50 mM Tris-HCl (pH7.5), 2 mM MgCl2, 2 mM MnCl2, 1 mM ATP, 1 mM Coenzyme A, 21 μg/ml tunicamycin, 10 μM nikkomycin Z, and 0.5 mM Dithiothreitol. The solution was adjusted to a total of 140 μl for use as a reaction solution. After incubating the solution at 24° C. for 15 minutes, 15 μCi UDP-[^14C]GlcNAc was added to the tube and then incubated at 24° C. for another one hour. 1 ml of chloroform:methanol (1:2) was added to the solution and stirred to stop the reaction. Then, lipid was extracted from the solution, dried, and desalted by butanol extraction. Acylated GPI (GlcN-(acyl)PI), non-acylated GPI (GlcN-PI), and GPI which was neither acylated nor deacylated (GlcNAc-PI) were separated by thin-layer chromatography (HCl3/CH3OH/1 M NH4OH (10:10:3)). Each spot was detected by autoradiography. […]

[2] = tested on: GWT1 gene products; details: reporter system reflecting the activity of the GWT1 gene products; cited from earlier work

T1 sequence (P47026 whole entry): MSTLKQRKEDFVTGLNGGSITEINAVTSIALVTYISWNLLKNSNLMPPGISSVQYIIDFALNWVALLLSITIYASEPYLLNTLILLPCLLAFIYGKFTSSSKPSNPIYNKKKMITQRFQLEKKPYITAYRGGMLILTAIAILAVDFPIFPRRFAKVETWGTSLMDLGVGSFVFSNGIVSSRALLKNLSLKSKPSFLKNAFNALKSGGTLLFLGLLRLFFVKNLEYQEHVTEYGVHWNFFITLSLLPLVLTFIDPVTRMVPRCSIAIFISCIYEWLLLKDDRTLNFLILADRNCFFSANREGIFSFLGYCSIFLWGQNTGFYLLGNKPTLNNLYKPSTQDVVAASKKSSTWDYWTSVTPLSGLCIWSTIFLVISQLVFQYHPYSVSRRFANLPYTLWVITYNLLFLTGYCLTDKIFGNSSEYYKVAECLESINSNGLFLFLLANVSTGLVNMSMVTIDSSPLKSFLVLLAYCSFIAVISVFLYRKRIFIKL

Row | Structure (SMILES) | spot intensity of acylated GPI (GlcN-(acyl)PI) [1] | inhibitory activity IC50 (Table 1 in WO 02/04626) [2] [µg/mL]
1 | CCCCc1ccc(Cc2nccc3ccccc23)c(O)c1 [Example B85, 5-butyl-2-(1-isoquinolylmethyl)phenol] | dose-dependent decrease | –
2 | CC(=O)N(C)CCCc1ccc(Cc2nccc3ccccc23)cc1 [Example B73, N-(3-(4-(1-isoquinolylmethyl)phenyl)propyl)-N-methylacetamide] | not observed to decrease | 50
3 | CCCCc1ccc(Cc2nccc3ccccc23)cc1 [Example B2, 1-(4-butylbenzyl)isoquinoline] | dose-dependent decrease | –
